Experimental findings from ChEMBL document CHEMBL4680379, “Structure-based Discovery of Cell-Potent Peptidomimetic Inhibitors for Protein N-Terminal Methyltransferase 1” (ACS Med Chem Lett, 2021) are described below.

The species entered for data set [1] is Homo sapiens. The experiment in a line: Selectivity for recombinant human N-terminal His6-tagged NTMT1 (1 to 222 residues) expressed in Escherichia coli BL21-CodonPlus(DE3)-RIL over human His-tagged G9a (913 to 1193 residues) expressed in Escherichia coli BL21-CodonPlus(DE3)-RIL.
Data set [2] concerns HCT-116. The experiment in a line: Cytotoxicity against human HCT116 cells assessed as reduction in cell viability up to 1 mM incubated for 48 hrs by resazurin-dye based alamar blue assay. The conditions noted are these: hct-116, 48 h. (Alamar Blue is a resazurin reagent that responds to reducing activity.)
In data set [3] the target is T1, N-terminal Xaa-Pro-Lys N-methyltransferase 1 (Homo sapiens) (UniProt Q9BV86).
T1 sequence (whole entry): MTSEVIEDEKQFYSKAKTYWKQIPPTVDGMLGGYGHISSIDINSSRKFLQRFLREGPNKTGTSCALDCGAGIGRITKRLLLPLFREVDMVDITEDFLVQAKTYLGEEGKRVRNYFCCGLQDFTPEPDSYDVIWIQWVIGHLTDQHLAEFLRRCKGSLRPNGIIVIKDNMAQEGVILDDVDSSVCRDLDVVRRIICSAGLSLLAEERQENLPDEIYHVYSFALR
Briefly: Inhibition of NTMT1 in human HCT116 cells assessed as decrease in me3-SPK level at 1 mM incubated for 3 days by Western blot analysis relative to control. The conditions noted are these: HCT-116, time 3.0 day. Format: cell-based. (In general: In western blotting, separated proteins are transferred to a membrane and probed.)

The target of data set [4] is T2, Histone-lysine N-methyltransferase SETD7 (Homo sapiens) (UniProt Q8WTS6).
T2 sequence (whole entry): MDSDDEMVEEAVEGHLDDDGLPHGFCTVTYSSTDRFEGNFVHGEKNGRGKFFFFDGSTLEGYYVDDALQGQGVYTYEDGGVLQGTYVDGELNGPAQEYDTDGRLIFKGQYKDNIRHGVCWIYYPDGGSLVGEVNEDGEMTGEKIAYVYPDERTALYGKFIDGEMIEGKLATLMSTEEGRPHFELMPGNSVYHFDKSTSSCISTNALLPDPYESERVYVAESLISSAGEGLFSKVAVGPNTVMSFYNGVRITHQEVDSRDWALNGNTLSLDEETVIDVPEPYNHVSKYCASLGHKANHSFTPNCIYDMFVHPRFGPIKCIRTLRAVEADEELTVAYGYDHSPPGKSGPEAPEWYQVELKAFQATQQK
The experiment in a line: Inhibition of His-tagged SETD7 (unknown origin) at 100 uM using H3-21 peptide as substrate preincubated for 10 mins in presence of SAM followed by substrate addition by SAHH-coupled fluorescence assay relative to control.

Data set [5] is filed under the species Homo sapiens. The experiment in a line: Selectivity for recombinant human N-terminal His6-tagged NTMT1 (1 to 222 residues) expressed in Escherichia coli BL21-CodonPlus(DE3)-RIL over His-tagged SETD7 (unknown origin).
The subject of data set [6] is HCT-116. The experiment in a line: Cytotoxicity against human HCT116 cells assessed as reduction in cell viability up to 1 mM incubated for 72 hrs by resazurin-dye based alamar blue assay. The conditions noted are these: hct-116, 72 h.
The target in data set [7] is T1, N-terminal Xaa-Pro-Lys N-methyltransferase 1 (Homo sapiens). The experiment in a line: Inhibition of NTMT1 in human HT29 cells assessed as decrease in me3-RCC1 level at 100 uM incubated for 3 days by Western blot analysis. It is filed as cell-based. The conditions noted are these: HT-29, time 3.0 day.
In data set [8] the target is T3, Histone-lysine N-methyltransferase EHMT2 (Homo sapiens) (UniProt Q96KQ7).
T3 sequence (whole entry): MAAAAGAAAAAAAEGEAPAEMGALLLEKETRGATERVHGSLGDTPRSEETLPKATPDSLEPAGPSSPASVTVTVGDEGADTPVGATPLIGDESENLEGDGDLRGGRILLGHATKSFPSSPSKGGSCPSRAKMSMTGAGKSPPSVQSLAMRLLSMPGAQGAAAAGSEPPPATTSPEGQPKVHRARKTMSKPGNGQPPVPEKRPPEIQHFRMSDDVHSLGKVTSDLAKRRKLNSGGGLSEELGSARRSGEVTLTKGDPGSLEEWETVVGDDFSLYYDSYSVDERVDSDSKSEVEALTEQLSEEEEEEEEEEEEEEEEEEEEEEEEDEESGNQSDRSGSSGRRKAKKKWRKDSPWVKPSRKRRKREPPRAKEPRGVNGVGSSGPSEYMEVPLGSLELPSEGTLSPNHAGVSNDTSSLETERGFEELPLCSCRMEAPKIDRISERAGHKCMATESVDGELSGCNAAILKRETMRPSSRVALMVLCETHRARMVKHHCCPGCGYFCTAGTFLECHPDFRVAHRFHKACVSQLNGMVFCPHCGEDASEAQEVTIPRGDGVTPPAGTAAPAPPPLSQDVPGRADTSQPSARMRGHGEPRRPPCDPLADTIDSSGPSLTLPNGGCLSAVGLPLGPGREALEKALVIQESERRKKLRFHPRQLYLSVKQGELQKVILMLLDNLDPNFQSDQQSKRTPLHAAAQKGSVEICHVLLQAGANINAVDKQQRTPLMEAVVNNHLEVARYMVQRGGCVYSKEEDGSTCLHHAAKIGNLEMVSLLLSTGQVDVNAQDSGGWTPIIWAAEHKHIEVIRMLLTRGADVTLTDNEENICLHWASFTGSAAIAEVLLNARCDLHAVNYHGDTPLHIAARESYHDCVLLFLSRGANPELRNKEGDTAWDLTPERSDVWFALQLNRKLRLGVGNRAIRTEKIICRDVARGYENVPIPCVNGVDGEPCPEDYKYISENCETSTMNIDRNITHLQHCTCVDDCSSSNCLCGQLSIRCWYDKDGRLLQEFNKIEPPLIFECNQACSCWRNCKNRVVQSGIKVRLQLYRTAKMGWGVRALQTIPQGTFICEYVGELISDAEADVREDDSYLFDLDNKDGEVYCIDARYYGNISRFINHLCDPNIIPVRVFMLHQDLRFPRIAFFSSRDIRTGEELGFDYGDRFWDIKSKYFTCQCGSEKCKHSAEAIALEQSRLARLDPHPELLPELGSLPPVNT
The experiment in a line: Inhibition of human His-tagged G9a (913 to 1193 residues) expressed in Escherichia coli BL21-CodonPlus(DE3)-RIL at 100 uM using H3-21 peptide as substrate preincubated for 10 mins in presence of SAM followed by substrate addition by SAHH-coupled fluorescence assay relative to control.

For data set [9], the target named is Protein arginine N-methyltransferase 3 (Homo sapiens) (UniProt O60678). Briefly: Inhibition of PRMT3 (unknown origin) at 100 uM relative to control.
Chain of Protein arginine N-methyltransferase 3 (Homo sapiens) (O60678 2-531 limits assumed): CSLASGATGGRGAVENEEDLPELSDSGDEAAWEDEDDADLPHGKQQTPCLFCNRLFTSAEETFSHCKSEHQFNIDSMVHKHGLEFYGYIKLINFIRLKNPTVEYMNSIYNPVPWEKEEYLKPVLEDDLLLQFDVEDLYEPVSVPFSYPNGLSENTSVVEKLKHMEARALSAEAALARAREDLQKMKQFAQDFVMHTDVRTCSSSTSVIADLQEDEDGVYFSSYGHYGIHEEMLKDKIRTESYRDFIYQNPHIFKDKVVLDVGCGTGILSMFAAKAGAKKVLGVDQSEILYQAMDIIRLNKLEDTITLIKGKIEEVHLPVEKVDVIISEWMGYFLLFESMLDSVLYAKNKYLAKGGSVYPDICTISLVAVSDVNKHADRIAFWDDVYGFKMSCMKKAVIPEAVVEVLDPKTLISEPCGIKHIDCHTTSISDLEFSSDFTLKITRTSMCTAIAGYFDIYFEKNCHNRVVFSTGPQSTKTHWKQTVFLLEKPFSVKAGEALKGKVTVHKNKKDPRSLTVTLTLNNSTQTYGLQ
Data set [10] deals with T4, N-terminal Xaa-Pro-Lys N-methyltransferase 1 (Homo sapiens, UniProt Q9BV86).
T4 sequence (Q9BV86 whole entry): T1 sequence (whole entry)
Briefly: Inhibition of NTMT1 in human HT29 cells assessed as decrease in me3-RCC1 level incubated for 3 days by Western blot analysis. Format: cell-based, HT-29.

The target in data set [11] is T1, N-terminal Xaa-Pro-Lys N-methyltransferase 1 (Homo sapiens). Briefly: Inhibition of NTMT1 in human HCT116 cells assessed as decrease in me3-SPK level at 100 uM incubated for 3 days by Western blot analysis relative to control. The note with it: HCT-116, time 3.0 day. It is filed as cell-based.
For data set [12], the species on record is Homo sapiens. Briefly: Selectivity for recombinant human N-terminal His6-tagged NTMT1 (1 to 222 residues) expressed in Escherichia coli BL21-CodonPlus(DE3)-RIL over PRMT1 (unknown origin).
The next data set has as its system HT-29. The experiment in a line: Cytotoxicity against human HT29 cells assessed as reduction in cell viability up to 1 mM incubated for 72 hrs by resazurin-dye based alamar blue assay. The note with it: ht-29, 72 h.

What is called inhibition is how much of the control response was suppressed. In general, IC50 refers to the concentration that gives 50% inhibition.

Active and inactive are the calls of the source. The rule behind the calls is not given here.

Consider `NCCCC[C@H](NC(=O)[C@@H]1CCCN1C(=O)Cc1cccc2ccccc12)C(=O)Nc1ccccc1C(N)=O`, for which the Selectivity ratio in the data set filed under Homo sapiens [1], in the data set filed under Homo sapiens [5] and in the data set listed under Homo sapiens [12] was more than 300 in each case. In addition, the Activity entry with HCT-116 [2], in the data set with HCT-116 [6] and with HT-29 was “Non-Toxic” in each case. The inhibition is 100% in [3]; less than 50% in [4]; less than 50% in [8]; less than 50% in data set [9]; 61% in data set [11]. Moreover, the inhibition result in data set [7] was “Active”. Moreover, in [10], the IC50 came to 30 µM.
